# Test results as given in patent US20050250801A1, “Method of treating cancer with azaspirane compositions” (priority 2003, published 2005).
# Read-outs that look alike come from different tables or passages of the source.
# What was measured:
# Type in all cases: cell-based
# [1] = test system: NCI-H322M; experiment: NCI in vitro SRB assay, Non-Small Cell Lung Cancer; conditions: for GI50 / CC50: Homo sapiens
# Procedure: (§1) An in vitro assay which tested the ability of N,N,-diethyl-8,8-dipropyl-2-azaspiro[4,5]decane-2-propanamine dimaleate (Compound 1) to inhibit the growth of known cancer cell lines was performed by the National Cancer Institute in accordance with standard procedures. See: Lin, Z. X., Hoult, J. R., and Raman, A. Sulphorhodamine B assay for measuring proliferation of a pigmented melanocyte cell line and its application to the evaluation of crude drugs used in the treatment of vitiligo. J Ethnopharmacol. 66: 141-150, 1999. Briefly, selected tumor cell lines were cultured in media containing five different concentrations of Compound 1. After 48 hours of continuous exposure, a sulforhodamine B (SRB) assay was used to estimate cell viability or growth via optical measurements.
# (§2) From the measurements, the following values were determined: 1) the concentration of Compound 1 at which a tumor cell growth inhibition of 50% (relative to control) occurs (GI50), 2) the concentration of Compound 1 at which no growth occurs (total growth inhibition, TGI), and 3) the concentration of Compound 1 at which the […] (LC 50). […] FIG. 6 illustrates, graphically, tumor cell growth as a function of Compound 1 concentration of the scanned tumor cell lines.
# [2] = test system: HOP-92; experiment: NCI in vitro SRB assay, Non-Small Cell Lung Cancer; conditions: for CC50 / GI50: Homo sapiens
# Procedure: as §1, §2
# [3] = test system: NCI-H522; experiment: NCI in vitro SRB assay, Non-Small Cell Lung Cancer; conditions: for CC50 / GI50: Homo sapiens
# Procedure: as §1, §2
# [4] = test system: A498; experiment: NCI in vitro SRB assay, Renal Cancer; conditions: for GI50: Homo sapiens
# Procedure: as §1, §2
# [5] = read-out: Log10 GI50 (converted)
# [6] = HOP-92, Log10 conc -4.0 Moles/L
# [7] = HOP-92, Log10 conc -5.0 Moles/L
# [8] = HOP-92, Log10 conc -6.0 Moles/L
# [9] = HOP-92, Log10 conc -7.0 Moles/L
# [10] = HOP-92, Log10 conc -8.0 Moles/L
# [11] = NCI-H522, Log10 conc -4.0 Moles/L
# [12] = NCI-H522, Log10 conc -5.0 Moles/L
# [13] = NCI-H522, Log10 conc -6.0 Moles/L
# [14] = NCI-H522, Log10 conc -7.0 Moles/L
# [15] = NCI-H522, Log10 conc -8.0 Moles/L
smiles,measurement,setting,value
"CCCC1(CCC)CCC2(CCN(CCCN(CC)CC)C2)CC1.O=C(O)/C=C\C(=O)O.O=C(O)/C=C\C(=O)O [Compound 1, N,N,-diethyl-8,8-dipropyl-2-azaspiro[4,5]decane-2-propanamine dimaleate]",Log10 TGI,[1],−5.64
same,TGI,[1],2290 nM
same,GI50,[1]; read-out: GI50,890 nM
same,CC50,[1]; read-out: LC50,5410 nM
same,GI50,[1]; [5],891 nM
same,CC50,[1]; read-out: Log10 LC50 (converted),5370 nM
same,Mean Optical Densities,[1]; Log10 conc -4.0 Moles/L,0.115
same,Percent Growth,[1]; Log10 conc -4.0 Moles/L,−84%
same,Mean Optical Densities,[1]; Log10 conc -5.0 Moles/L,0.100
same,Percent Growth,[1]; Log10 conc -5.0 Moles/L,−86%
same,Mean Optical Densities,[1]; Log10 conc -6.0 Moles/L,0.855
same,Percent Growth,[1]; Log10 conc -6.0 Moles/L,48%
same,Mean Optical Densities,[1]; Log10 conc -7.0 Moles/L,0.979
same,Percent Growth,[1]; Log10 conc -7.0 Moles/L,86%
same,Mean Optical Densities,[1]; Log10 conc -8.0 Moles/L,0.991
same,Percent Growth,[1]; Log10 conc -8.0 Moles/L,89%
same,Log10 TGI,[2]; HOP-92,−5.41
same,TGI,[2]; HOP-92,3920 nM
same,Mean Optical Densities,[2]; [6],0.106
same,Percent Growth,[2]; [6],−87%
same,Mean Optical Densities,[2]; [7],0.542
same,Percent Growth,[2]; [7],−33%
same,Mean Optical Densities,[2]; [8],1.227
same,Percent Growth,[2]; [8],49%
same,Mean Optical Densities,[2]; [9],1.412
same,Percent Growth,[2]; [9],71%
same,Mean Optical Densities,[2]; [10],1.529
same,Percent Growth,[2]; [10],85%
same,CC50,"[2]; HOP-92, read-out: LC50",20300 nM
same,CC50,"[2]; HOP-92, read-out: Log10 LC50 (converted)",20400 nM
same,GI50,"[2]; HOP-92, read-out: GI50",897 nM
same,GI50,"[2]; HOP-92, read-out: Log10 GI50 (converted)",891 nM
same,CC50,"[3]; NCI-H522, read-out: LC50",> 100000 nM
same,CC50,"[3]; NCI-H522, read-out: Log10 LC50 (converted)",> 100000 nM
same,GI50,"[3]; NCI-H522, read-out: GI50",1180 nM
same,GI50,"[3]; NCI-H522, read-out: Log10 GI50 (converted)",1170 nM
same,Log10 TGI,[3]; NCI-H522,−5.22
same,TGI,[3]; NCI-H522,6050 nM
same,Mean Optical Densities,[3]; [11],0.099
same,Percent Growth,[3]; [11],−7%
same,Mean Optical Densities,[3]; [12],0.091
same,Percent Growth,[3]; [12],−15%
same,Mean Optical Densities,[3]; [13],0.347
same,Percent Growth,[3]; [13],55%
same,Mean Optical Densities,[3]; [14],0.531
same,Percent Growth,[3]; [14],97%
same,Mean Optical Densities,[3]; [15],0.518
same,Percent Growth,[3]; [15],94%
same,Log10 TGI,[4],−5.50
same,TGI,[4],3130 nM
same,GI50,[4]; read-out: GI50,1680 nM
same,GI50,[4]; [5],1700 nM
same,Mean Optical Densities,[4]; Log10 conc -4.0 Moles/L,0.157
same,Percent Growth,[4]; Log10 conc -4.0 Moles/L,−85%
same,Mean Optical Densities,[4]; Log10 conc -5.0 Moles/L,0.065
same,Percent Growth,[4]; Log10 conc -5.0 Moles/L,−94%
same,Mean Optical Densities,[4]; Log10 conc -6.0 Moles/L,1.336
same,Percent Growth,[4]; Log10 conc -6.0 Moles/L,92%
same,Mean Optical Densities,[4]; Log10 conc -7.0 Moles/L,1.327
same,Percent Growth,[4]; Log10 conc -7.0 Moles/L,89%
same,Mean Optical Densities,[4]; Log10 conc -8.0 Moles/L,1.297
same,Percent Growth,[4]; Log10 conc -8.0 Moles/L,79%
